Assay results published in PubChem BioAssay AID200 (DTP/NCI, 2004).
Several values for one entry are separate records, joined by “and”; a condition that tells them apart may be missing. Identical values can stand only once. Inconclusive results and toxic doses are left out.

Tested on: B6C3F1 mice, B16 melanoma ip, median survival T/C
Experiment: NCI In Vivo Anticancer Drug Screen. Data for tumor model B16 Melanoma (intraperitoneal) in B6C3F1 mice
Conditions: endpoint: median survival time, higher = longer survival
How it was run: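 Transplantable tumor in mice; treated vs vehicle control groups; survival or tumor size measured; value = T/C ratio.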

[1] = dose: 1.25 mg/kg/injection, schedule: Q01DX009 (ip), vehicle: saline with Tween-80
[2] = dose: 2.5 mg/kg/injection, schedule: Q01DX009 (ip), vehicle: saline with Tween-80
[3] = dose: 5.0 mg/kg/injection, schedule: Q01DX009 (ip), vehicle: saline with Tween-80
[4] = dose: 25.0 mg/kg/injection, schedule: Q01DX009 (ip), vehicle: saline
[5] = dose: 50.0 mg/kg/injection, schedule: Q01DX009 (ip), vehicle: saline
[6] = dose: 100.0 mg/kg/injection, schedule: Q01DX009 (ip), vehicle: saline
[7] = dose: 50.0 mg/kg/injection, schedule: Q01DX009 (ip), vehicle: other
[8] = dose: 25.0 mg/kg/injection, schedule: Q01DX009 (ip), vehicle: saline with Tween-80
[9] = dose: 50.0 mg/kg/injection, schedule: Q01DX009 (ip), vehicle: saline with Tween-80
[10] = dose: 12.5 mg/kg/injection, schedule: Q01DX009 (ip), vehicle: saline with Tween-80
[11] = dose: 100.0 mg/kg/injection, schedule: Q01DX009 (ip), vehicle: Klucel (hydroxypropylcellulose) (HPC)
[12] = dose: 200.0 mg/kg/injection, schedule: Q01DX009 (ip), vehicle: Klucel (hydroxypropylcellulose) (HPC)
[13] = dose: 12.5 mg/kg/injection, schedule: Q01DX009 (ip), vehicle: saline
[14] = dose: 3.12 mg/kg/injection, schedule: Q01DX009 (ip), vehicle: Klucel (hydroxypropylcellulose) (HPC)
[15] = dose: 6.25 mg/kg/injection, schedule: Q01DX009 (ip), vehicle: Klucel (hydroxypropylcellulose) (HPC)
[16] = dose: 12.5 mg/kg/injection, schedule: Q01DX009 (ip), vehicle: Klucel (hydroxypropylcellulose) (HPC)
[17] = dose: 25.0 mg/kg/injection, schedule: Q01DX009 (ip), vehicle: Klucel (hydroxypropylcellulose) (HPC)
[18] = dose: 50.0 mg/kg/injection, schedule: Q01DX009 (ip), vehicle: Klucel (hydroxypropylcellulose) (HPC)
[19] = dose: 200.0 mg/kg/injection, schedule: Q01DX009 (ip), vehicle: saline

With `COC1C(C)OC(OC2CC(C)(O)Cc3cc4c(c(O)c32)C(=O)c2c(O)cc3c(c2C4=O)OC2OC3(C)C(O)C(N(C)C)C2O)C(OC)C1(C)OC` (stereo not given) the T/C (dose: 0.16 mg/kg/injection, schedule: Q01DX009 (ip), vehicle: other) was 92 % of control, the T/C (dose: 0.31 mg/kg/injection, schedule: Q01DX009 (ip), vehicle: other) was 95 % of control and 102 % of control and the T/C (dose: 0.62 mg/kg/injection, schedule: Q01DX009 (ip), vehicle: other) was 113 % of control. For the same compound, the T/C (dose: 0.63 mg/kg/injection, schedule: Q01DX009 (ip), vehicle: other) was 116 % of control and 124 % of control and 97 % of control and the T/C (dose: 5.0 mg/kg/injection, schedule: Q01DX009 (ip), vehicle: other) was 157 % of control and 175 % of control.
In the case of `O=C1N[C@@H]2C(=C[C@H](O)[C@@H](O)[C@H]2O)c2cc3c(c(O)c21)OCO3`, the T/C (dose: 0.62 mg/kg/injection, schedule: Q01DX009 (ip), vehicle: saline with Tween-80) is reported as 115 % of control, the T/C [1] is reported as 111 % of control and the T/C [2] is reported as 109 % of control. The T/C [3] was 123 % of control.
With `CC(=O)Nc1ccc(C(O)C2=CC(=O)c3ccccc3C2=O)cc1` (stereo not given) the T/C [4] was 102 % of control, the T/C [5] was 88 % of control and the T/C [6] was 94 % of control.
`COc1cccc2c1C(=O)c1c(O)c3c(c(O)c1C2=O)C[C@@](O)(C(=O)CO)C[C@@H]3OC1CC(OC(C)=O)C(OC(C)=O)C(C)O1` (stereo not given in full) was tested, and the T/C (dose: 6.25 mg/kg/injection, schedule: Q01DX009 (ip), vehicle: distilled water + Tween-80) was 178 % of control, the T/C (dose: 12.5 mg/kg/injection, schedule: Q01DX001 (ip), vehicle: distilled water + Tween-80) was 150 % of control and the T/C (dose: 25.0 mg/kg/injection, schedule: Q01DX001 (ip), vehicle: distilled water + Tween-80) was 159 % of control and 195 % of control. For the same compound, the T/C (dose: 50.0 mg/kg/injection, schedule: Q01DX001 (ip), vehicle: distilled water + Tween-80) was 176 % of control and 202 % of control.
For `CN(C)N=Nc1cccc2c1N(C)c1ccc(Cl)cc1S2`, the T/C (dose: 6.25 mg/kg/injection, schedule: Q01DX009 (ip), vehicle: other) was 109 % of control, the T/C (dose: 12.5 mg/kg/injection, schedule: Q01DX009 (ip), vehicle: other) was 108 % of control and the T/C (dose: 25.0 mg/kg/injection, schedule: Q01DX009 (ip), vehicle: other) was 103 % of control. For the same compound, the T/C [7] was 104 % of control and the T/C (dose: 100.0 mg/kg/injection, schedule: Q01DX009 (ip), vehicle: other) was 89 % of control.
`ClCc1ccc2ccccc2n1` was tested, and the T/C [8] was 107 % of control and the T/C [9] was 102 % of control.
For `CCCCCCCCCCCCSC1=C(Cl)C(=O)C(OC)=C(OC)C1=O`, the T/C (dose: 3.12 mg/kg/injection, schedule: Q01DX009 (ip), vehicle: saline with Tween-80) was 95 % of control and 102 % of control, the T/C (dose: 6.25 mg/kg/injection, schedule: Q01DX009 (ip), vehicle: saline with Tween-80) was 95 % of control and 103 % of control and the T/C [10] was 89 % of control and 94 % of control. For the same compound, the T/C [8] was 90 % of control and 100 % of control, the T/C [9] was 88 % of control and 101 % of control and the T/C (dose: 100.0 mg/kg/injection, schedule: Q01DX009 (ip), vehicle: saline with Tween-80) was 89 % of control.
For `CC(OCc1ccccc1)C(NC(=O)OC(C)(C)C)C(=O)O` (stereo not given), the T/C [11] was 92 % of control, the T/C [12] was 100 % of control and the T/C (dose: 400.0 mg/kg/injection, schedule: Q01DX009 (ip), vehicle: Klucel (hydroxypropylcellulose) (HPC)) was 96 % of control.
In the case of `BrC1c2cccc3cccc(c23)C1Br` (stereo not given), the T/C [10] is reported as 123 % of control and the T/C [9] is reported as 155 % of control.
With `O=[n+]1c2c(n([O-])c3ccccc31)-c1cccc3cccc-2c13` the T/C (dose: 3.12 mg/kg/injection, schedule: Q01DX009 (ip), vehicle: saline) was 99 % of control, the T/C (dose: 6.25 mg/kg/injection, schedule: Q01DX009 (ip), vehicle: saline) was 91 % of control and the T/C [13] was 94 % of control.
`CN(C(=S)S(=O)(=O)C12CC3CC(CC(C3)C1)C2)c1ccccc1` was tested, and the T/C (dose: 1.56 mg/kg/injection, schedule: Q01DX009 (ip), vehicle: Klucel (hydroxypropylcellulose) (HPC)) was 104 % of control, the T/C [14] was 98 % of control and the T/C [15] was 104 % of control. For the same compound, the T/C [16] was 101 % of control, the T/C [17] was 114 % of control and the T/C [18] was 104 % of control.
For `CC12CC3OC(=O)C1COC14OC5(C2C1=O)C(O)(CCC1C4CC2OC24CC=CC(=O)C14C)C(=O)OC35C` (stereo not given), the T/C (dose: 7.5 mg/kg/injection, schedule: Q01DX009 (ip), vehicle: Klucel (hydroxypropylcellulose) (HPC)) was 88 % of control, the T/C (dose: 15.0 mg/kg/injection, schedule: Q01DX009 (ip), vehicle: Klucel (hydroxypropylcellulose) (HPC)) was 93 % of control and the T/C (dose: 30.0 mg/kg/injection, schedule: Q01DX009 (ip), vehicle: Klucel (hydroxypropylcellulose) (HPC)) was 99 % of control.
For `CC(C)(C)C(=O)Oc1ccc(N=C(N)N)cc1`, the T/C [13] was 94 % of control, the T/C [4] was 94 % of control and the T/C [5] was 97 % of control. For the same compound, the T/C [6] was 92 % of control.
In the case of `COC(=O)Nc1cn2ccc(Sc3ccccc3)cc2n1`, the T/C [18] is reported as 122 % of control and the T/C [11] is reported as 101 % of control.
With `Cc1nc(C(Cl)(Cl)Cl)[nH]c(=O)c1SCCO` the T/C (dose: 25.0 mg/kg/injection, schedule: Q01DX009 (ip), vehicle: distilled water + alcohol) was 111 % of control, the T/C (dose: 50.0 mg/kg/injection, schedule: Q01DX009 (ip), vehicle: distilled water + alcohol) was 107 % of control and the T/C (dose: 100.0 mg/kg/injection, schedule: Q01DX009 (ip), vehicle: distilled water + alcohol) was 102 % of control. The T/C (dose: 200.0 mg/kg/injection, schedule: Q01DX009 (ip), vehicle: distilled water + alcohol) was 106 % of control and the T/C (dose: 400.0 mg/kg/injection, schedule: Q01DX009 (ip), vehicle: distilled water + alcohol) was 119 % of control.
With `Nc1nc(=S)c2ncn(C3CC(O)C(CO)O3)c2[nH]1` (stereo not given) the T/C [13] was 101 % of control, the T/C [4] was 96 % of control and the T/C [5] was 104 % of control. For the same compound, the T/C [6] was 104 % of control, the T/C [19] was 103 % of control and the T/C (dose: 400.0 mg/kg/injection, schedule: Q01DX009 (ip), vehicle: saline) was 103 % of control.
`Nc1nc(/C=C(/O)c2ccccc2)c2ncn(C3OC(CO)C(O)C3O)c2n1` (stereo not given) was tested, and the T/C (dose: 12.5 mg/kg/injection, schedule: Q01DX009 (ip), vehicle: distilled water + Tween-80) was 103 % of control, the T/C [13] was 102 % of control and the T/C (dose: 25.0 mg/kg/injection, schedule: Q01DX009 (ip), vehicle: distilled water + Tween-80) was 101 % of control. For the same compound, the T/C [4] was 101 % of control, the T/C (dose: 50.0 mg/kg/injection, schedule: Q01DX009 (ip), vehicle: distilled water + Tween-80) was 95 % of control and the T/C [5] was 111 % of control. For the same compound, the T/C (dose: 100.0 mg/kg/injection, schedule: Q01DX009 (ip), vehicle: distilled water + Tween-80) was 101 % of control, the T/C [6] was 101 % of control and the T/C [19] was 103 % of control.
In the case of `COC(=O)Nc1nc2ccc(SC)cc2c(=O)[nH]1`, the T/C [17] is reported as 96 % of control, the T/C [18] is reported as 101 % of control and the T/C [12] is reported as 114 % of control.
In the case of `Nc1ccc(Cn2ccc3c4c(N)nc(N)nc4ccc32)cc1`, the T/C [1] is reported as 95 % of control and 100 % of control, the T/C [2] is reported as 110 % of control and 99 % of control and the T/C [3] is reported as 99 % of control and 105 % of control. For the same compound, the T/C (dose: 10.0 mg/kg/injection, schedule: Q01DX009 (ip), vehicle: saline with Tween-80) was 111 % of control and 119 % of control.
In the case of `Oc1c(Cl)cc(Cl)cc1C1N2CCCCC2C2c3cccn3-c3ccccc3N21` (stereo not given), the T/C [16] is reported as 101 % of control, the T/C [17] is reported as 98 % of control and the T/C [18] is reported as 104 % of control. The T/C [11] was 98 % of control and the T/C [12] was 87 % of control.
`COC(=O)Nc1cn2cc(C(=O)c3cccs3)ccc2n1` was tested, and the T/C [15] was 122 % of control, the T/C [17] was 159 % of control and 175 % of control and the T/C [7] was 179 % of control.
In the case of `O=C(C#Cc1ccccc1)c1ccccc1`, the T/C [14] is reported as 100 % of control and 102 % of control, the T/C [15] is reported as 92 % of control and 102 % of control and the T/C [16] is reported as 97 % of control and 101 % of control. For the same compound, the T/C [17] was 90 % of control and 94 % of control.
For `CC(=O)[C@]1(O)Cc2c(O)c3c(c(O)c2[C@@H](OC2CC(N)C(O)C(C)O2)C1)C(=O)c1c(O)cccc1C3=O` (stereo not given in full), the T/C (dose: 0.38 mg/kg/injection, schedule: Q01DX001 (ip), vehicle: water) was 150 % of control.
`CC(N)C(=O)NC(CC(N)=O)C(=O)O` (stereo not given) was tested, and the T/C [5] was 103 % of control, the T/C [6] was 94 % of control and the T/C [19] was 97 % of control.
